PubChem BioAssay AID330 (DTP/NCI, 2004)
Inconclusive results and toxic doses are left out. The calls were made as follows: active = survival T/C of 150% or more; inactive = T/C below 125% in these data.

System: P388 leukemia ip, CD2F1 mice, survival T/C
Test: NCI In Vivo Anticancer Drug Screen. Data for tumor model P388 Leukemia (intraperitoneal) in CD2F1 (CDF1) mice
Settings: endpoint: median survival time, higher = longer survival
Procedure, shortened: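 Mice carrying the transplanted tumor received test compound or vehicle. Survival was recorded in each group, and the value is the treated-group measurement divided by that of the vehicle-treated control group.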

[1] = dose: 50.0 mg/kg/injection, schedule: Q01DX005 (ip), vehicle: saline with Tween-80
[2] = dose: 100.0 mg/kg/injection, schedule: Q01DX005 (ip), vehicle: saline with Tween-80
[3] = dose: 100.0 mg/kg/injection, schedule: Q01DX009 (ip), vehicle: saline with Tween-80
[4] = dose: 200.0 mg/kg/injection, schedule: Q01DX009 (ip), vehicle: saline with Tween-80

Measured: T/C

Cc1cccc(Cl)c1NC1=NCCO1
inactive: dose: 6.25 mg/kg/injection, schedule: Q04DX003 (ip), vehicle: saline with Tween-80 95 % of control | dose: 12.5 mg/kg/injection, schedule: Q04DX003 (ip), vehicle: saline with Tween-80 95 % of control | dose: 25.0 mg/kg/injection, schedule: Q04DX003 (ip), vehicle: saline with Tween-80 100 % of control

CCn1c2ccccc2c2cc(N=Nc3cc(N)ccc3N(C)C)ccc21
inactive: [1] 87 % of control | [2] 87 % of control | dose: 200.0 mg/kg/injection, schedule: Q01DX005 (ip), vehicle: saline with Tween-80 87 % of control

Cc1ccc(NC(=O)N(NC(=O)NNc2ccccc2)c2ccccc2)c(C)c1
inactive: dose: 50.0 mg/kg/injection, schedule: Q01DX009 (ip), vehicle: saline with Tween-80 99 % of control | [3] 93 % of control | [4] 92 % of control

COc1ccc(NCCOc2ccccc2Br)cc1
inactive: dose: 100.0 mg/kg/injection, schedule: Q04DX003 (ip), vehicle: other 90 % of control | dose: 132.0 mg/kg/injection, schedule: Q01DX009 (ip), vehicle: other 123 % of control | dose: 200.0 mg/kg/injection, schedule: Q01DX009 (ip), vehicle: other 104 % of control | dose: 200.0 mg/kg/injection, schedule: Q04DX003 (ip), vehicle: other 90 % of control | dose: 300.0 mg/kg/injection, schedule: Q01DX009 (ip), vehicle: other 100 % of control | dose: 400.0 mg/kg/injection, schedule: Q04DX003 (ip), vehicle: other 95 % of control

N#Cc1ccoc1
inactive: dose: 12.5 mg/kg/injection, schedule: Q01DX005 (ip), vehicle: Klucel (hydroxypropylcellulose) (HPC) 93 % of control | dose: 25.0 mg/kg/injection, schedule: Q01DX005 (ip), vehicle: Klucel (hydroxypropylcellulose) (HPC) 102 % of control | dose: 50.0 mg/kg/injection, schedule: Q01DX005 (ip), vehicle: Klucel (hydroxypropylcellulose) (HPC) 104 % of control

Cc1ccc(C)c(NC(=O)CCC(=O)C(C)C(=O)c2ccccc2)c1 (stereo unspecified)
inactive: dose: 60.0 mg/kg/injection, schedule: Q01DX005 (ip), vehicle: saline with Tween-80 111 % of control | dose: 120.0 mg/kg/injection, schedule: Q01DX005 (ip), vehicle: saline with Tween-80 102 % of control | dose: 240.0 mg/kg/injection, schedule: Q01DX005 (ip), vehicle: saline with Tween-80 108 % of control

CCNC(=O)OCc1c(COC(=O)NCC)c(-c2ccc(F)cc2)n2c1CCC2
inactive: dose: 3.13 mg/kg/injection, schedule: Q01DX009 (ip), vehicle: distilled water + Tween-80 123 % of control

C/C(=C(/O)c1ccccc1)c1nc2ccc(Cl)cc2[nH]c1=O
inactive: dose: 60.0 mg/kg/injection, schedule: Q01DX005 (ip), vehicle: Klucel + Tween-80 103 % of control | dose: 120.0 mg/kg/injection, schedule: Q01DX005 (ip), vehicle: Klucel + Tween-80 94 % of control | dose: 240.0 mg/kg/injection, schedule: Q01DX005 (ip), vehicle: Klucel + Tween-80 91 % of control

CC(C)OCc1cccc2ccnc(COC(C)C)c12
inactive: dose: 100.0 mg/kg/injection, schedule: Q01DX001 (ip), vehicle: saline 102 % of control | dose: 200.0 mg/kg/injection, schedule: Q01DX001 (ip), vehicle: saline 100 % of control | dose: 400.0 mg/kg/injection, schedule: Q01DX001 (ip), vehicle: saline 95 % of control

O=[N+]([O-])c1ccc2c(c1)nc(-c1ccccn1)n2CCc1ccccn1
inactive: dose: 100.0 mg/kg/injection, schedule: Q04DX003 (ip), vehicle: Klucel (hydroxypropylcellulose) (HPC) 107 % of control | dose: 200.0 mg/kg/injection, schedule: Q04DX003 (ip), vehicle: Klucel (hydroxypropylcellulose) (HPC) 101 % of control | dose: 400.0 mg/kg/injection, schedule: Q04DX003 (ip), vehicle: Klucel (hydroxypropylcellulose) (HPC) 107 % of control

O=[N+]([O-])c1ccc(/C=N\N=C\c2ccco2)cc1
inactive: [3] 90 % of control | [4] 100 % of control | dose: 400.0 mg/kg/injection, schedule: Q01DX009 (ip), vehicle: saline with Tween-80 90 % of control

O=C(O)C1CSCN1c1cccc[n+]1[O-] (stereo unspecified)
inactive: dose: 25.0 mg/kg/injection, schedule: Q01DX005 (ip), vehicle: saline with Tween-80 101 % of control | [1] 102 % of control | [2] 99 % of control
